Where a name gives a salt, the structure may show the parent alone. Read-outs that look alike come from different tables or passages of the source.
Assays:
EGFR = target: T1, EGFR (Homo sapiens, UniProt P00533); assay: EGFR in-cell Western (ICW) screening protocol (EGFR inhibition assay); type: cell-based; set-up: ICW 1 / ICW 2 / ICW Avg: unit not given here; details: for ICW assay: Table 10; for ICW Avg / ICW 1 / ICW 2: ICW assay; for ICW Avg: average of runs 1 and 2; for ICW 1: run 1; for ICW 2: run 2
T1 construct: host or cells: A431
How it was run: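 Serum-starved A431 cells (2 h) were pretreated with compound for 4 h at 37° C, then stimulated with EGF (10 ng/ml final, or 6.6 or 12.5 ng/ml in some runs) for 10 min. After formaldehyde fixation, phospho-EGFR (Tyr1173, or Tyr1045 in some runs) and total EGFR were detected by in-cell Western immunostaining.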

[1] = test system: epithelial carcinoma A431 cell line; assay: MTT Cell Proliferation Assay, A431 cells; type: cell-based; details: for MTT Assay IC50(A431/MDBK): ratio in parentheses: ratio MDBK IC50 / A431 IC50 (selectivity)
How it was run: (§1)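 Viability was measured by mitochondrial MTT reduction after cells were exposed to compound for 3 days in reduced-serum medium. Inhibition was calculated per plate against 0.5% DMSO controls.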

MDBK line = assay: MTT Cell Proliferation Assay, MDBK cells; type: cell-based, bovine
How it was run: as §1

[2] = % Inhibition of EGF dependent EGFR phosphorylation in A431 cells, compound 125 μM in assay
[3] = Homo sapiens, A-431, 72 h, Table 10, first of x/y(ratio): A431, three day treatment, unit not printed (doses in μM), read-out: MTT assay (first value)
[4] = Bos taurus, MDBK, 72 h, Table 10, second of x/y(ratio): MDBK, three day treatment, unit not printed (doses in μM), read-out: MTT assay (second value)
[5] = Homo sapiens, A-431, A431 cells, first value of cell, read-out: MTT Assay IC50(A431/MDBK): A431
[6] = Bos taurus, MDBK, MDBK cells, second value of cell, read-out: MTT Assay IC50(A431/MDBK): MDBK
[7] = Homo sapiens, A-431, first value of 'a/b (c)', taken as A431 cells, read-out: MTT Screen, first value of cell
[8] = Bos taurus, MDBK, second value of 'a/b (c)', taken as MDBK cells, read-out: MTT Screen, second value of cell
[9] = A431 cells, first value of cell, read-out: MTT Assay IC50(A431/MDBK): A431
[10] = MDBK cells, second value of cell, read-out: MTT Assay IC50(A431/MDBK): MDBK

T1 sequence (P00533 25-1210): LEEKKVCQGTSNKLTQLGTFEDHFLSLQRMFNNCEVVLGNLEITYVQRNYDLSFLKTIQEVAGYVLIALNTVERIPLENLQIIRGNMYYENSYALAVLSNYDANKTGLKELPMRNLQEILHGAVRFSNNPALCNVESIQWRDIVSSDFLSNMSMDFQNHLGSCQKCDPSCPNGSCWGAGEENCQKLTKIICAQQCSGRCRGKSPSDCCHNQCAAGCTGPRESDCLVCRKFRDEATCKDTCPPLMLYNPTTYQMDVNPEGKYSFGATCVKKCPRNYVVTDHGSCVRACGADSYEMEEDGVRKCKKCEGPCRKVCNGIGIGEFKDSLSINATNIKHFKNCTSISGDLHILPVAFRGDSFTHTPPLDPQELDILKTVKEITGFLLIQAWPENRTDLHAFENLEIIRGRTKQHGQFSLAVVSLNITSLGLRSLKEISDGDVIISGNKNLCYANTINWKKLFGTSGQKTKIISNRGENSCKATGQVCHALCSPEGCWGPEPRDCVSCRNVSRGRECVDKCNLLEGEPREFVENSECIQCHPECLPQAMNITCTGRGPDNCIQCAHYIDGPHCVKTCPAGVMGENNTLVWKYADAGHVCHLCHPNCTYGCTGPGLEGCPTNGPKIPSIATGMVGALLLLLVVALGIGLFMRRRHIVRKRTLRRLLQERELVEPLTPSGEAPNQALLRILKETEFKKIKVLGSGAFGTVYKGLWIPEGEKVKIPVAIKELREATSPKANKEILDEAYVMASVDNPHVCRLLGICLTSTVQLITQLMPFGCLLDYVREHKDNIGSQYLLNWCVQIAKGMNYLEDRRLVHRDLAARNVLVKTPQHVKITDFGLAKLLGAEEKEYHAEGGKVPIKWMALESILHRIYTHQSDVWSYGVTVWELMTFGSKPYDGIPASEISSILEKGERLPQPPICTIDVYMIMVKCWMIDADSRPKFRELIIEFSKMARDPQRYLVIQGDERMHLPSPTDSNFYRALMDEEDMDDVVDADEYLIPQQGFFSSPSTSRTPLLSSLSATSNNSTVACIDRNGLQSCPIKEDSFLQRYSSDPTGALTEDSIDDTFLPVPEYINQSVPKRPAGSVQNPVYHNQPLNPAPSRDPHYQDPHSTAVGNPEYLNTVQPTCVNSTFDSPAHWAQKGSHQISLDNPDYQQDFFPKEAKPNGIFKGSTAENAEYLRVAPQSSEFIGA

| ICW Avg (EGFR) | ICW 1 (EGFR) | ICW 2 (EGFR) | IC50 [1, 5] [µM] | MTT Assay IC50(A431/MDBK): ratio in parentheses [1] | Structure (SMILES) | IC50 (MDBK line; [6]) [µM] | other results |
| --- | --- | --- | --- | --- | --- | --- | --- |
| – | – | – | – | – | COc1ccc(NC(=S)Nc2ccc(S(=O)(=O)Nc3c(C)cc(C)cc3C)cc2)cc1OC [AD4-11428] | – | ICW assay (EGFR; [2]): 29.8673; IC50 [1, 3]: 20.8 µM; IC50 (MDBK line; [4]): 15.5 µM |
| – | – | – | – | – | Cc1cc(C)c2oc(=O)cc(CN3CCN(Cc4ccc5c(c4)OCO5)CC3)c2c1 [AD4-10174] | – | ICW Screen (EGFR; Table 11, % Inhibition of EGF dependent EGFR phosphorylation in A431 cells, compound 125 μM in assay): 45.85; IC50 ([1]; Homo sapiens, A-431, Table 11, first of x/y(ratio): A431, unit inferred, read-out: MTT Follow-up (first value)): 4.42 µM; IC50 ([1]; Homo sapiens, A-431, Table 11, first of x/y(ratio): A431, unit not printed (doses in μM), read-out: MTT Screen (first value)): 2.26 µM; IC50 (MDBK line; Bos taurus, MDBK, Table 11, second of x/y(ratio): MDBK, unit inferred, read-out: MTT Follow-up (second value)): 101 µM; IC50 (MDBK line; Bos taurus, MDBK, Table 11, second of x/y(ratio): MDBK, unit not printed (doses in μM), read-out: MTT Screen (second value)): 8.58 µM |
| 25.37 | 30.73 | 20.02 | 5.31 | 3.35 | CC1(C)CC(=O)c2cnc(Nc3nc(-c4ccccc4)c4cc(Cl)ccc4n3)nc2C1 [11807 + TFA] | 17.8 | – |
| – | – | – | – | – | CC(C)CC(=O)NC(=S)Nc1ccc(S(=O)(=O)N2CCc3ccccc32)cc1 [AD4-10626] | – | ICW Screen (ICW Inhibition) (EGFR): 50.05; IC50 [1, 7]: 5.31 µM; IC50 (MDBK line; [8]): 19.6 µM |
| 82.76 | 87.04 | 78.48 | 2.1 | 1.43 | Cc1ccc2c(C)nc(Nc3nc(-c4ccccc4)cc(=O)[nH]3)nc2c1 [10381 + TFA] | 3.01 | – |
| – | – | – | – | – | CCN(CC)S(=O)(=O)c1ccc(NC(=S)NC(=O)CC(C)C)cc1 [AD4-12049] | – | ICW Screen (ICW Inhibition) (EGFR): 36.966; IC50 [1, 7]: 32.3 µM; IC50 (MDBK line; [8]): 12 µM |
| 51.10 | 47.93 | 54.26 | – | 1.00 | Cc1nc(Nc2nc(=O)cc(CSc3ccc(Cl)cc3)[nH]2)nc2ccccc12 [11583 + TFA] | – | IC50 [1, 9]: 47.3 µM; IC50 (MDBK line; [10]): 47.3 µM |
| 30.58 | 44.07 | 17.08 | 44.1 | 0.99 | Cc1ccc2nc(Nc3nc(C)cc(-c4ccccc4)n3)nc(C)c2c1 [12689 + TFA] | 43.6 | – |
| – | – | – | – | – | O=S(=O)(Nc1ccc(Cl)cc1)c1ccc(NC(=S)Nc2cccc(Cl)c2)cc1 [AD4-12494] | – | ICW assay (EGFR; [2]): 112.965; IC50 [1, 3]: 5.64 µM; IC50 (MDBK line; [4]): 5.71 µM |
| 45.35 | 53.67 | 37.02 | – | 0.54 | CCc1c(C)nc(Nc2nc(C)c3cccc(OC)c3n2)[nH]c1=O [12738 + TFA] | – | IC50 [1, 9]: 45.4 µM; IC50 (MDBK line; [10]): 24.6 µM |
| 50.68 | 53.35 | 48.02 | 6.98 | – | Cc1ccc2nc(Nc3nc(CSc4nnc(C)s4)cc(=O)[nH]3)nc(C)c2c1 [compound 11450] | 6.83 | – |
| 36.40 | 45.86 | 26.95 | 5.04 | 0.71 | CCOc1ccc2nc(Nc3nc(C)cc(-c4ccccc4)n3)nc(C)c2c1 [12688 + TFA] | 3.58 | – |
| – | – | – | – | – | Cc1cc(C)nc(NS(=O)(=O)c2ccc(NC(=S)NC(=O)/C=C/c3ccc(F)cc3)cc2)n1 [AD4-11871] | – | ICW Screen (ICW Inhibition) (EGFR): 45.776; IC50 [1, 7]: 49.7 µM; IC50 (MDBK line; [8]): 41.8 µM |
| – | – | – | – | – | Cc1ccc(NC(=S)Nc2ccc(S(=O)(=O)Nc3cc(Cl)cc(Cl)c3)cc2)cc1C [AD4-12400] | – | ICW assay (EGFR; [2]): 69.4793; IC50 [1, 3]: 4.05 µM; IC50 (MDBK line; [4]): 5.77 µM |
| – | – | – | – | – | CC1CCc2cc(F)ccc2N1S(=O)(=O)c1ccc(NC(=S)Nc2ccc3c(c2)OCO3)cc1 (stereo not shown) [AD4-12828] | – | ICW assay (EGFR; [2]): 32.6456; IC50 [1, 3]: 26.6 µM; IC50 (MDBK line; [4]): 63.4 µM |
| – | – | – | – | – | Cc1ccc(NS(=O)(=O)c2ccc(NC(=S)NC(=O)CC(C)C)cc2)cc1C [AD4-12024] | – | ICW Screen (ICW Inhibition) (EGFR): 31.244; IC50 [1, 7]: 6.77 µM; IC50 (MDBK line; [8]): 6.34 µM |
| 31.86 | 29.45 | 34.27 | 36.1 | 0.54 | CCCc1c(C)nc(Nc2nc(C)c3cc(C)ccc3n2)[nH]c1=O [compound 12667] | 19.6 | – |

— patent publication US20140179681A1, “METHODS AND COMPOSITIONS OF TARGETED DRUG DEVELOPMENT” (priority 2010, published 2014)
